The values below come from US9096632B2, “Modulator of activity of adenylate cyclase” (Public University Corporation Yokohama City University, priority 2010, dated 2015).

A short description of data set [1]: Water solubility / hydrophilicity (stock solutions in pure water). Format: physicochemical. The settings on record: in words. The protocol:
The thus synthesized position 2-substituted derivative (V2E), position 3-substituted derivative (V3E) and position 5-substituted derivative (V5E) were dissolved in pure water to give a concentration of 10 mM, to thereby prepare stock solutions. Vidarabine was dissolved in 100% dimethylsulfoxide to thereby prepare a 10 mM stock solution.
The newly synthesized three vidarabine derivatives (FIG. 1) were dissolved in pure water to thereby prepare 10 mM stock solutions. Since vidarabine infusion of about 2 mM is used in clinical scenes as an antiherpes therapeutic (Arasena-A for intravenous infusion; Mochida Pharmaceutical Co., Ltd.), it was possible to prepare solutions at concentrations about 5 times higher than that of the infusion. In the present study, vidarabine was dissolved in 100% DMSO to prepare a 10 mM stock solution.

The conditions of data set [2]: vidarabine, background statement; cited from earlier work.

For the compound `CN(C)CC(=O)OC1C(O)C(CO)OC1n1cnc2c(N)ncnc21` (centres unmarked) [V2E, 2-O—(N,N-Dimethylglycyl)Vidarabine], the hydrophilicity result in data set [1] was “highly hydrophilic”.

`Nc1ncnc2c1ncn2[C@@H]1O[C@H](CO)[C@@H](O)[C@@H]1O` [vidarabine, reference compound]: in data set [2], the water solubility result was “poor”.
